Reference: patent publication US11399540B2, “Molecules having pesticidal utility, and intermediates, compositions, and processes, related thereto” (CORTEVA AGRISCIENCE LLC, priority 2017, dated 2022)

What was measured:
[1] = tested on: Beet Armyworm (Spodoptera exigua, LAPHEG); experiment: Bioassay on Beet Armyworm (BAW), 128-well diet tray assay; format: in vivo; conditions: 168 h, 50 μg/cm^2 of test molecule on artificial diet, second instar larvae, 25° C., five to seven days, average of eight wells, read-out: BAW % Control (or Mortality) rating
Experimental: (§1) Certain molecules disclosed in this document were tested against BAW and CL using procedures described in the following examples. In the reporting of the results, the “BAW & CL Rating Table” was used (See Table Section).
Bioassays on BAW were conducted using a 128-well diet tray assay. One to five second instar BAW larvae were placed in each well (3 mL) of the diet tray that had been previously filled with 1 mL of artificial diet to which 50 μg/cm^2 of the test molecule (dissolved in 50 μL of 90:10 acetone-water mixture) had been applied (to each of eight wells) and then allowed to dry. Trays were covered with a clear self-adhesive cover, vented to allow gas exchange, and held at 25° C., 14:10 light-dark for five to seven days. Percent mortality was recorded for the larvae in each well; activity in the eight wells was then averaged. The results are indicated in the table entitled “Table ABC: Biological Results” (See Table Section).

[2] = tested on: Cabbage Looper (Trichoplusia ni, TRIPNI); experiment: Bioassay on Cabbage Looper (CL), 128-well diet tray assay; format: in vivo; conditions: 168 h, 50 μg/cm^2 of test molecule on artificial diet, second instar larvae, 25° C., five to seven days, average of eight wells, read-out: CL % Control (or Mortality) rating
Experimental: as §1
Bioassays on CL were conducted using a 128-well diet tray assay. One to five second instar CL larvae were placed in each well (3 mL) of the diet tray that had been previously filled with 1 mL of artificial diet to which 50 μg/cm^2 of the test molecule (dissolved in 50 μL of 90:10 acetone-water mixture) had been applied (to each of eight wells) and then allowed to dry. Trays were covered with a clear self-adhesive cover, vented to allow gas exchange, and held at 25° C., 14:10 light-dark for five to seven days. Percent mortality was recorded for the larvae in each well; activity in the eight wells was then averaged. The results are indicated in the table entitled “Table ABC: Biological Results” (See Table Section).

Compound | mortality at 50 µg/cm2 [1] | mortality at 50 µg/cm2 [2]
Cc1ccc(C(C)C)c(N2C(=O)CS/C2=N\C(=O)NCOc2ccc(-c3ncn(-c4ccc(OC(F)(F)F)cc4)n3)cc2)c1 [Compound F1, (Z)-1-(3-(2-isopropyl-5-methylphenyl)-4-oxothiazolidin-2-ylidene)-3-((4-(1-(4-(trifluoromethoxy)phenyl)-1H-1,2,4-triazol-3-yl)phenoxy)methyl)urea] | 50 to 100% | 50 to 100%
CCOc1ccccc1N1C(=O)CS/C1=N\C(=O)NCOc1ccc(-c2ncn(-c3ccc(OC(F)(F)F)cc3)n2)cc1 [Compound F25, (Z)-1-(3-(2-Ethoxyphenyl)-4-oxothiazolidin-2-ylidene)-3-((4-(1-(4-(trifluoromethoxy)phenyl)-1H-1,2,4-triazol-3-yl)phenoxy)methyl)urea] | 50 to 100% | 50 to 100%
Cc1ccc(OCC(F)(F)F)c(N2C(=O)CS/C2=N\C(=O)NCOc2ccc(-c3ncn(-c4ccc(OC(F)(F)F)cc4)n3)cc2)c1 [Compound F23, (Z)-1-(3-(5-Methyl-2-(2,2,2-trifluoroethoxy)phenyl)-4-oxothiazolidin-2-ylidene)-3-((4-(1-(4-(trifluoromethoxy)phenyl)-1H-1,2,4-triazol-3-yl)phenoxy)methyl)urea] | 50 to 100% | 50 to 100%
CCCCc1ccccc1N1C(=O)CS/C1=N\C(=O)NCOc1ccc(-c2ncn(-c3ccc(OC(F)(F)F)cc3)n2)cc1 [Compound F28, (Z)-1-(3-(2-Butylphenyl)-4-oxothiazolidin-2-ylidene)-3-((4-(1-(4-(trifluoromethoxy)phenyl)-1H-1,2,4-triazol-3-yl)phenoxy)methyl)urea] | 0% | 0 to 50%
Cc1ccc(F)c(N2C(=O)CS/C2=N\C(=O)NCOc2ccc(-c3ncn(-c4ccc(OC(F)(F)F)cc4)n3)cc2)c1 [Compound F29, (Z)-1-(3-(2-Fluoro-5-methylphenyl)-4-oxothiazolidin-2-ylidene)-3-((4-(1-(4-(trifluoromethoxy)phenyl)-1H-1,2,4-triazol-3-yl)phenoxy)methyl)urea] | 50 to 100% | 50 to 100%
O=C(/N=C1\SCC(=O)N1c1cccc2c1CCCC2)NCOc1ccc(-c2ncn(-c3ccc(OC(F)(F)F)cc3)n2)cc1 [Compound F27, (Z)-1-(4-Oxo-3-(5,6,7,8-tetrahydronaphthalen-1-yl)thiazolidin-2-ylidene)-3-((4-(1-(4-(trifluoromethoxy)phenyl)-1H-1,2,4-triazol-3-yl)phenoxy)methyl)urea] | 50 to 100% | 50 to 100%
COc1ccc(N2C(=O)CS/C2=N\C(=O)NCOc2ccc(-c3ncn(-c4ccc(OC(F)(F)F)cc4)n3)cc2)c(C)c1 [Compound F32, (Z)-1-(3-(4-Methoxy-2-methylphenyl)-4-oxothiazolidin-2-ylidene)-3-((4-(1-(4-(trifluoromethoxy)phenyl)-1H-1,2,4-triazol-3-yl)phenoxy)methyl)urea] | 50 to 100% | 50 to 100%
CCc1cccc(C)c1N1C(=O)CS/C1=N\C(=O)NCOc1ccc(-c2ncn(-c3ccc(OC(F)(F)F)cc3)n2)cc1 [Compound F30, (Z)-1-(3-(2-Ethyl-6-methylphenyl)-4-oxothiazolidin-2-ylidene)-3-((4-(1-(4-(trifluoromethoxy)phenyl)-1H-1,2,4-triazol-3-yl)phenoxy)methyl)urea] | 50 to 100% | 50 to 100%
CSC(C)c1ccccc1N1C(=O)CS/C1=N\C(=O)NCOc1ccc(-c2ncn(-c3ccc(OC(F)(F)F)cc3)n2)cc1 (stereo not drawn) [Compound F31, (Z)-1-(3-(2-(1-(methylthio)ethyl)phenyl)-4-oxothiazolidin-2-ylidene)-3-((4-(1-(4-(trifluoromethoxy)phenyl)-1H-1,2,4-triazol-3-yl)phenoxy)methyl)urea] | 50 to 100% | 50 to 100%
COC(=O)c1ccc(N2C(=O)CS/C2=N\C(=O)NCOc2ccc(-c3ncn(-c4ccc(OC(F)(F)F)cc4)n3)cc2)c(C)c1 [Compound F26, Methyl (Z)-3-methyl-4-(4-oxo-2-((((4-(1-(4-(trifluoromethoxy)phenyl)-1H-1,2,4-triazol-3-yl)phenoxy)methyl)carbamoyl)imino)thiazolidin-3-yl)benzoate] | 0% | 50 to 100%
COc1ccc(CC(F)(F)F)c(N2C(=O)CS/C2=N\C(=O)NCOc2ccc(-c3ncn(-c4ccc(OC(F)(F)F)cc4)n3)cc2)c1 [Compound F2, (Z)-1-(3-(5-Methoxy-2-(2,2,2-trifluoroethyl)phenyl)-4-oxothiazolidin-2-ylidene)-3-((4-(1-(4-(trifluoromethoxy)phenyl)-1H-1,2,4-triazol-3-yl)phenoxy)methyl)urea] | 50 to 100% | 50 to 100%
Cc1ccc(C(C)C)c(N2C(=O)CS/C2=N\C(=O)NC(C)Oc2ccc(-c3ncn(-c4ccc(OC(F)(F)F)cc4)n3)cc2)c1 (stereo not drawn) [Compound F24, (Z)-1-(3-(2-Isopropyl-5-methylphenyl)-4-oxothiazolidin-2-ylidene)-3-(1-(4-(1-(4-(trifluoromethoxy)phenyl)-1H-1,2,4-triazol-3-yl)phenoxy)ethyl)urea] | 50 to 100% | 50 to 100%
